Source: article PMC4770311, “Discovery and Characterization of GSK2801, a Selective Chemical Probe for the Bromodomains BAZ2A and BAZ2B” (Journal of Medicinal Chemistry, 2015)
Values joined by “and” are separate entries in the source; they are usually repeats but may differ in a detail not shown here. Equal entries are not always repeated.

Columns and labels:
BAZ2A [1] = molecular target: T1, BAZ2A (Homo sapiens, UniProt Q9UIF9); test: AlphaScreen assay BAZ2A; assay type: binding; details: average of three replicates ± SEM
T1 construct: Recombinant BAZ2A and BAZ2B bromodomains were expressed in; made in house; host or cells: E. coli
T1 sequence (Q9UIF9 1793-1897 limits assumed): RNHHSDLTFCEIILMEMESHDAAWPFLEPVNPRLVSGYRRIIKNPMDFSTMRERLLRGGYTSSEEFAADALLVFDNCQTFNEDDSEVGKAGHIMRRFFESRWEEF
Experimental: (§1) AlphaScreen: AlphaScreen was performed as described previously 10, with minor modifications from the manufacturers protocol (PerkinElmer, USA). Briefly, all reagents were diluted in the recommended buffer (50 mM HEPES, 100 mM NaCl, 0.1% BSA; pH = 7.4) supplemented with 0.05% CHAPS and allowed to equilibrate to room temperature prior to […]
(§2) Plates were sealed and incubated at room temperature for 30 min. 4 μL of streptavidin-coated donor beads (10ug/mL final) and 4 μL of nickel chelate acceptor beads (10 μg/ml final) were then added under low light conditions. Plates were foil sealed to protect from light, incubated at room temperature for 60 min and read on a PHERAstar FS plate reader (BMG Labtech, Germany) using an AlphaScreen 680 excitation/570 emission filter set.
(§3) Fragments were dissolved in ethylene glycol to overcome sensitivity of the bromodomain assay to DMSO and allow compounds to be screened at mM concentrations. IC50 […]
(§4) measurements were taken over a 12 point 1:2 serial dilution of compound. IC50s were calculated in GraphPad Prism 5 (GraphPad Software, USA). […]

BRD4(1) = molecular target: T2, BRD4(1) (Homo sapiens, UniProt O60885); test: AlphaScreen cross screening BRD4(1); assay type: binding; details: average of three replicates ± SEM
T2 construct: […]
Experimental: as §1, §2, §3, §4

BRD9 [2] = molecular target: T3, BRD9 (Homo sapiens, UniProt Q9H8M2); test: AlphaScreen cross screening BRD9; assay type: binding; details: average of three replicates ± SEM
T3 construct: ITC experiments using the bromodomain of BRD9
Experimental: as §1, §2, §3, §4

TAF1L(2) = molecular target: T4, TAF1L(2) (Homo sapiens, UniProt Q8IZX4); test: Isothermal titration calorimetry TAF1L(2); assay type: binding; details: ITC
T4 construct: the second bromodomain in TAF1L(2)
T4 sequence (Q8IZX4 1517-1626 limits assumed): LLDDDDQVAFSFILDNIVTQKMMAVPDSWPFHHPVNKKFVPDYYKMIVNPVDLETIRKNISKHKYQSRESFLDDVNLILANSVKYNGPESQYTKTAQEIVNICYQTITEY
Experimental: Thermal stability shift assays: The recombinant bromodomains at 2 µM were mixed with 10 µM inhibitors. The assays and data evaluation for melting temperatures were performed using a Real-Time PCR Mx3005p machine (Stratagene) and the protocols previously […]
Isothermal titration calorimetry: All calorimetric titration experiments were carried out on VP-ITC (MicroCal) at 15 °C. The buffer condition used was 20 mM HEPES, pH 7.5, 150 mM NaCl and 0.5 mM TCEP. Titration was performed by injecting the proteins (200 µM) into a […]
Integrated heat of the titrations after corrected for the heat of dilution were analysed using the Origin program. The corrected data were fitted to a single binding site model using a nonlinear least-square minimization algorithm, and the binding parameters including reaction enthalpy changes (ΔH), reaction […] changes (TΔS), equilibrium dissociation constants (KD), stoichiometry (n) were calculated.
AlphaScreen: AlphaScreen was performed as described previously 10, with minor modifications from the manufacturers protocol (PerkinElmer, USA). […]
Plates were sealed and incubated at room temperature for 30 min. […] Plates were foil sealed to protect from light, incubated at room temperature for 60 min and read on a PHERAstar FS plate reader (BMG Labtech, Germany) using an AlphaScreen 680 excitation/570 emission filter set. […]

BRD9 [3] = molecular target: T3, BRD9; test: Isothermal titration calorimetry BRD9; assay type: binding; details: ITC
Experimental: VP-ITC (MicroCal) at 15 °C.
reaction cell containing the inhibitors (15 µM). Integrated heat of the titrations after corrected
modifications from the manufacturers protocol (PerkinElmer, USA). Briefly, all reagents were
final) were then added under low light conditions. Plates were foil sealed to protect from […]

BRD9 [4] = molecular target: T3, BRD9; test: Thermal stability shift assay BRD9; assay type: binding; details: inhibitor concentration 10 μM; read-out: temperature shift (ΔTm) BRD9
BAZ2A [5] = molecular target: BAZ2A (Homo sapiens, UniProt Q9UIF9); test: Chemoproteomic competition binding assay, endogenous BAZ2A; details: up to a concentration of 50 μM; HuT78 extracts
Target sequence in this assay (Q9UIF9 whole entry): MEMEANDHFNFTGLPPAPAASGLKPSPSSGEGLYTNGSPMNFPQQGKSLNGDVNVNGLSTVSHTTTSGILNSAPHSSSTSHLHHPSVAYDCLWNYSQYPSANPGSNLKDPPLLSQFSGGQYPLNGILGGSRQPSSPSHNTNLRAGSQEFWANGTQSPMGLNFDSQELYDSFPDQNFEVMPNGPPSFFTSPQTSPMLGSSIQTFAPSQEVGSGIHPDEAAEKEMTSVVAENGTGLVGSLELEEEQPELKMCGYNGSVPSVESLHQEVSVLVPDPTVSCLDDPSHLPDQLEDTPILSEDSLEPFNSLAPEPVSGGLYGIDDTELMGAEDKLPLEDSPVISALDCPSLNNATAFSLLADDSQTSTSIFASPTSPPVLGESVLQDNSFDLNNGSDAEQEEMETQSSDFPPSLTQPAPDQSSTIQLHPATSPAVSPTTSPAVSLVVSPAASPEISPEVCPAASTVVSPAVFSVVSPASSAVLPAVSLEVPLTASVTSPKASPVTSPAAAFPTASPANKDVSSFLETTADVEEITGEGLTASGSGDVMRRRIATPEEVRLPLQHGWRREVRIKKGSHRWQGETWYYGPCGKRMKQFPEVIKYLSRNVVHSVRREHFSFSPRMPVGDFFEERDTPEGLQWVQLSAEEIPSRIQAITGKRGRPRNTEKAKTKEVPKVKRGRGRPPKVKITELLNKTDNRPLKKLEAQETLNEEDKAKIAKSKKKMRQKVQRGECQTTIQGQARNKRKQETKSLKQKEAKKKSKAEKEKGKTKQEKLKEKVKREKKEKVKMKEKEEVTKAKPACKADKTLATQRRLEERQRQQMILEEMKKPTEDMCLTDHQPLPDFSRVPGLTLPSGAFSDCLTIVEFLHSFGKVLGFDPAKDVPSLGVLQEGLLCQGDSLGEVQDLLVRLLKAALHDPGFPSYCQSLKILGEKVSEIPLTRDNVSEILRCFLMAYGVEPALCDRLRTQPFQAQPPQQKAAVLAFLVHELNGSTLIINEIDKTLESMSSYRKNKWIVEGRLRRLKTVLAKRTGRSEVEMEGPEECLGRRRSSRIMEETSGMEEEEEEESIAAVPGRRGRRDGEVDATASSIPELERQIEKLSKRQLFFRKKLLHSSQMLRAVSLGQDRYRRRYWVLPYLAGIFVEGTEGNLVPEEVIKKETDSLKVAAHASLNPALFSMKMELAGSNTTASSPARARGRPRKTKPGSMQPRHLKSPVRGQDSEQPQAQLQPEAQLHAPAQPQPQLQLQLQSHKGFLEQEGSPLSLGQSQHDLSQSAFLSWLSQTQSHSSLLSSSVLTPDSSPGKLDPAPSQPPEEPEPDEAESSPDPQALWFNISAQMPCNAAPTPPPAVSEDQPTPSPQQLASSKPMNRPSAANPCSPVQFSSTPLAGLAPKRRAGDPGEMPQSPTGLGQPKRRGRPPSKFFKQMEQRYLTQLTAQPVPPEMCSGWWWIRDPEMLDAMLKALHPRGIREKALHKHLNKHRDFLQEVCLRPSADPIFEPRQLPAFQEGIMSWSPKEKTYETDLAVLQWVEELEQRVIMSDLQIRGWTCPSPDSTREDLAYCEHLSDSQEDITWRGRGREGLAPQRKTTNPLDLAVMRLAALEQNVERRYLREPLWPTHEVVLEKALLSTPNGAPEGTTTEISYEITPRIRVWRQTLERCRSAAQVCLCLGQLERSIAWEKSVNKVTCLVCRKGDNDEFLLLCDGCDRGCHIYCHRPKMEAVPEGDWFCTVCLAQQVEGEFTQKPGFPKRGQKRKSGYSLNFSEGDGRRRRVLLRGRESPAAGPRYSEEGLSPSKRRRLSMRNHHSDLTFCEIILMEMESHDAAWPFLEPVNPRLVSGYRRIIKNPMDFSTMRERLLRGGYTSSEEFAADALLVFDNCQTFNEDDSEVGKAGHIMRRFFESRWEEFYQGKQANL

[6] = tested on: panel of biotin-labeled bromodomains; details: two concentrations, 0.2 and 1.0 μM
Experimental: measurements were taken over a 12 point 1:2 serial dilution of compound. IC50s were calculated in GraphPad Prism 5 (GraphPad Software, USA).
Biolayer interference assays. BAZ2A and BAZ2B were expressed in frame with a C- […]
of a single biotin using the biotin ligase (BirA) which has been co-expressed in E. coli using the co-expression vector BL21(DE3)-R3-pRARE2-BirA. Cells were grown in the presence of 0.1 mM biotin and were lysed and purified using a similar procedure as described for the non-biotin labelled protein.
The biotin labelled BAZ2B and BAZ2A was immobilized on SuperStreptavidin BLI sensors.
BioLayer Interferometry (BLI) experiments were performed on a 16-channel ForteBio Octet […]
buffer. The reference sensors without attached bromodomain were used to subtract background binding to SuperStreptavidin sensors. Data were processed and analysed using ForteBio Analysis software.
Determination of PK profiles for GSK2801 after IP (intraperitoneal) and PO (oral) administrations to male CD-1 mice: These PK studies were performed by the DMPK […]
The IP and PO dosing solutions were prepared in 0.5%
Test system: CD-1 mice, 28-32g, male, N=18, purchased from SLAC Laboratory Animal Co.
LTD. The animals were given free access to food and water. A dose of 30 mg/kg (10 mL/kg) was used via intraperitoneal injection (N=9) and for oral dosing 30 mg/kg (10 mL/kg) via gavage (N=9). […]

BRD9 [7] = molecular target: T5, BRD9 (Homo sapiens, UniProt Q9H8M2); test: Chemoproteomic competition binding assay, endogenous BRD9; details: HuT78 extracts; competition with affinity matrix
T5 construct: endogenous in cells; host or cells: HuT78
T5 sequence (Q9H8M2 1-597): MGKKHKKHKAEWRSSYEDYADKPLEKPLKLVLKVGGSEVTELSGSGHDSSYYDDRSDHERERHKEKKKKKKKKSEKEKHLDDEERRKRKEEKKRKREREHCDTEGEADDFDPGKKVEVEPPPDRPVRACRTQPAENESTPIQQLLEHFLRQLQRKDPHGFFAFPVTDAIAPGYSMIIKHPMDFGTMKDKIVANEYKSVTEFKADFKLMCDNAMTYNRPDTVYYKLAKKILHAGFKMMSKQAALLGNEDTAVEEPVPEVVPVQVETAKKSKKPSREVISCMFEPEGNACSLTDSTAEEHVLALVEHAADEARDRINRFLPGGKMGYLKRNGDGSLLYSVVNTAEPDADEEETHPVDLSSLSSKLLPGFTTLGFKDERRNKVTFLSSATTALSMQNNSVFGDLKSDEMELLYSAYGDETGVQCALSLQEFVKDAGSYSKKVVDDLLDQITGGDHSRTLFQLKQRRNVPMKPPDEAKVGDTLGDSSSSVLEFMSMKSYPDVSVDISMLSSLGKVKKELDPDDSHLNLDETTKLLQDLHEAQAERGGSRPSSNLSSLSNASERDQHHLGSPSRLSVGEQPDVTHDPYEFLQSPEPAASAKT

SMARCA2 and 4 = test: Chemoproteomic competition binding assay, endogenous SMARCA2 and 4; details: HuT78 extracts; likely indirect via BRD9 in BAF complex
BAZ2B = BAZ2B (Homo sapiens, UniProt Q9UIF8); test: Chemoproteomic competition binding assay, endogenous BAZ2B; details: up to a concentration of 50 μM; HuT78 extracts
BAZ2B, sequence (Q9UIF8 whole entry): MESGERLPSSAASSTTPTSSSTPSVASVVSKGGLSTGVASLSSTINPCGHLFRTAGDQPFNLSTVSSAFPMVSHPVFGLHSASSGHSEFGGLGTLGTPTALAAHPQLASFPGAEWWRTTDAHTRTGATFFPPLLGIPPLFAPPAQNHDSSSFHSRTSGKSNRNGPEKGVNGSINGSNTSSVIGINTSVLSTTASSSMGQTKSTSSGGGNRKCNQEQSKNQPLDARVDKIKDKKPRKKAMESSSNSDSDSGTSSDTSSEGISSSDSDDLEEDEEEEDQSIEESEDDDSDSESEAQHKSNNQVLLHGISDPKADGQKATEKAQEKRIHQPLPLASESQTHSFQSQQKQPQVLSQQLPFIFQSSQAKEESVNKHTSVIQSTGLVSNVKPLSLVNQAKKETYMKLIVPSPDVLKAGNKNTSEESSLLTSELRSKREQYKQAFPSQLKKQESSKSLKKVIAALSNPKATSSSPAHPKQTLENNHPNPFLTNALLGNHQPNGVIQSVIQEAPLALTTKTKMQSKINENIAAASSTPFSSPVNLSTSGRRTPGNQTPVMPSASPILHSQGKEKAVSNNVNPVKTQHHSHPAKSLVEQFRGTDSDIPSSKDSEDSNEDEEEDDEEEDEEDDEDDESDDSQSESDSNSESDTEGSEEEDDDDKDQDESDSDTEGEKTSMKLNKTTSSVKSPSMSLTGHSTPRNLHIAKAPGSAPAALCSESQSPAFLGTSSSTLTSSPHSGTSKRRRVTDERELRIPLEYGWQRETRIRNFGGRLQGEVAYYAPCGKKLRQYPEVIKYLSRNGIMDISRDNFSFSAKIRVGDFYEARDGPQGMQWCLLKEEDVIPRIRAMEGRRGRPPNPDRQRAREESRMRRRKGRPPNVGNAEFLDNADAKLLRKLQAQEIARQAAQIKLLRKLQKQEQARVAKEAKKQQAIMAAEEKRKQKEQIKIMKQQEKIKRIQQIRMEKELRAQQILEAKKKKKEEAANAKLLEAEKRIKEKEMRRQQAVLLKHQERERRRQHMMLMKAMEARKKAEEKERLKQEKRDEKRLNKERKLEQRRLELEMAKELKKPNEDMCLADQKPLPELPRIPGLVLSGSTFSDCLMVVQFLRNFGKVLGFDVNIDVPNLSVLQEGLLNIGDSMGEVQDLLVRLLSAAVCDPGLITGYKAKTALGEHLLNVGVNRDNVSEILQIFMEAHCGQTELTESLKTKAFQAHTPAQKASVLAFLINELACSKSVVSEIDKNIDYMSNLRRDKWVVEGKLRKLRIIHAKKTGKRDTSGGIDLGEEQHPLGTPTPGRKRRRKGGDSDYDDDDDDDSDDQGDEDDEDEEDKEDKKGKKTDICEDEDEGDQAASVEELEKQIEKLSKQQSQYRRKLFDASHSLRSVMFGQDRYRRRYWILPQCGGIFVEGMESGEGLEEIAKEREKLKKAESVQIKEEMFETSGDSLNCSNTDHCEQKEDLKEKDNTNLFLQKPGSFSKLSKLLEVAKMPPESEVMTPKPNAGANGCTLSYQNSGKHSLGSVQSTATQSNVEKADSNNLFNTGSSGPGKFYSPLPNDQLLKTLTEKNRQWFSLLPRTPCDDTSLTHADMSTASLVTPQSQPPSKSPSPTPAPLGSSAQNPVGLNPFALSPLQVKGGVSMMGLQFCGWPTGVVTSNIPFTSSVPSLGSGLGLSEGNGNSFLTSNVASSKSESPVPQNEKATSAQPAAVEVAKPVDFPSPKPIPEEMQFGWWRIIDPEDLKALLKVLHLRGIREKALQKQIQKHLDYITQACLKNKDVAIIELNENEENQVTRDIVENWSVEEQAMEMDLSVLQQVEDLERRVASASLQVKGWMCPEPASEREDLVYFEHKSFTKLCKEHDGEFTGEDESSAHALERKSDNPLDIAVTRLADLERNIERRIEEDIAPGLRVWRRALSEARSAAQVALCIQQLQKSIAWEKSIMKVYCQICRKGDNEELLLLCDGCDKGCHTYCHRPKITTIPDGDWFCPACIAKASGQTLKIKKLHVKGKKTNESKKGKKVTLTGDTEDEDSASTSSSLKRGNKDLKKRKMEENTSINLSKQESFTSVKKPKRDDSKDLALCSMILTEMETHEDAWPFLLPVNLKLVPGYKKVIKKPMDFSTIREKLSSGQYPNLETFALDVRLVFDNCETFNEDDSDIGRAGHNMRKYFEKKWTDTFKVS

`COc1cccc(-c2cc(C(C)=O)n3ccccc23)c1` [Compound 3, 1-(1-(3-Methoxyphenyl)indolizin-3-yl)ethanone] was tested, and the IC50 (BAZ2A [1]) was greater than 30000 nM.

`CC(=O)c1cc(-c2cccs2)c2ccccn12` [Compound 4, 1-(1-(Thiophen-2-yl)indolizin-3-yl)ethanone] gave an IC50 (BAZ2A [1]) of 8600 ± 10 nM.

Compound `CC(=O)c1cc(-c2ccccc2O)c2ccccn12` [Compound 5, 1-(1-(2-hydroxyphenyl)indolizin-3-yl)ethanone] has an IC50 (BAZ2A [1]) of 7200 ± 60 nM.

Work on `CC(=O)c1cc(-c2cccc(O)c2)c2ccccn12` [Compound 6, 1-(1-(3-hydroxyphenyl)indolizin-3-yl)ethanone] yielded an IC50 (BAZ2A [1]) of 3300 ± 50 nM.

`CC(=O)c1cc(-c2ccccc2CO)c2ccccn12` [Compound 7, 1-(1-(2-(hydroxymethyl)phenyl)indolizin-3-yl)ethanone] was tested, and the IC50 (BAZ2A [1]) was 1800 ± 50 nM, the IC50 (BRD4(1)) was 38900 ± 13300 nM and the IC50 (BRD9 [2]) was 23700 ± 160 nM.

`CC(=O)c1cc(-c2cccc(C(N)=O)c2)c2ccccn12` [Compound 8, 3-(3-acetylindolizin-1-yl)benzamide] showed an IC50 (BAZ2A [1]) of 1800 ± 20 nM.

`COc1ccc(-c2cc(C(C)=O)n3ccccc23)c(CO)c1` [Compound 9, 1-(1-(2-(hydroxymethyl)-4-methoxyphenyl)indolizin-3-yl)ethanone] showed an IC50 (BAZ2A [1]) of 1400 ± 10 nM.

Work on `CC(=O)c1cc(-c2ccc(CO)cc2)c2ccccn12` [Compound 10, 1-(1-(4-(hydroxymethyl)phenyl)indolizin-3-yl)ethanone] yielded an IC50 (BAZ2A [1]) of 1200 ± 70 nM.

In the case of `CC(=O)c1cc(-c2ccc(N(C)C)cc2)c2ccccn12` [Compound 11, 1-(1-(4-(dimethylamino)phenyl)indolizin-3-yl)ethanone], the IC50 (BAZ2A [1]) is reported as 1100 ± 70 nM.

`CC(=O)c1cc(-c2ccccc2S(C)(=O)=O)c2ccccn12` [Compound 12, 1-(1-(2-(methylsulfonyl)phenyl)indolizin-3-yl)ethanone] showed an IC50 (BAZ2A [1]) of 720 ± 70 nM, an IC50 (BRD4(1)) greater than 50000 nM and an IC50 (BRD9 [2]) of 17900 ± 3850 nM.

Work on `CC(=O)c1cc(-c2ccccc2CO)c2cc(C)ccn12` [Compound 13, 1-(1-(2-(hydroxymethyl)phenyl)-7-methylindolizin-3-yl)ethanone] yielded an IC50 (BAZ2A [1]) of 1000 ± 90 nM.

In the case of `COc1ccn2c(C(C)=O)cc(-c3ccccc3CO)c2c1` [Compound 14, 1-(1-(2-(hydroxymethyl)phenyl)-7-methoxyindolizin-3-yl)ethanone], the IC50 (BAZ2A [1]) is reported as 1200 ± 10 nM.

`CC(=O)c1cc(-c2ccccc2CO)c2cc(N3CCOCC3)ccn12` [Compound 15, 1-(1-(2-(hydroxymethyl)phenyl)-7-morpholinoindolizin-3-yl)ethanone] showed an IC50 (BAZ2A [1]) of 1700 ± 130 nM.

For `CC(=O)c1cc(-c2ccccc2CO)c2cc(C(N)=O)ccn12` [Compound 16, 3-acetyl-1-(2-(hydroxymethyl)phenyl)indolizine-7-carboxamide], the IC50 (BAZ2A [1]) was 4100 ± 90 nM.

For `CC(=O)c1cc(-c2ccccc2CO)c2cc(Oc3ccccc3)ccn12` [Compound 17, 1-(1-(2-(hydroxymethyl)phenyl)-7-phenoxyindolizin-3-yl)ethanone], the IC50 (BAZ2A [1]) was 4100 ± 60 nM.

Work on `CC(=O)c1cc(-c2ccccc2S(C)(=O)=O)c2cc(CNC(=O)OC(C)(C)C)ccn12` [Compound 18, tert-butyl ((3-acetyl-1-(2-(methylsulfonyl)phenyl)indolizin-7-yl)methyl)carbamate] yielded an IC50 (BAZ2A [1]) of 160 ± 50 nM, an IC50 (BRD4(1)) greater than 50000 nM and an IC50 (BRD9 [2]) of 1400 ± 40 nM.

In the case of `CCCOc1ccn2c(C(C)=O)cc(-c3ccccc3S(C)(=O)=O)c2c1` [Compound 19, 1-(1-(2-(methylsulfonyl)phenyl)-7-propoxyindolizin-3-yl)ethanone], the “binding enthalpy change ΔH TAF1L(2)” value (TAF1L(2)) is reported as −8.6 (±0.02) kcal/mol, the Kd (TAF1L(2); listed as GSK2801) is reported as 3200 nM and 3190 nM and the IC50 (BRD4(1)) is reported as greater than 50000 nM. For the same compound, the “binding enthalpy change ΔH BRD9” value (BRD9 [3]) was −9.8 (±0.01) kcal/mol, the Kd (BRD9 [3]; listed as GSK2801) was 1200 nM and the IC50 (BRD9 [2]) was greater than 50000 nM. It also gave a ΔTm at 10 µM (BRD9 [4]) of 2.3 °C.

For `CC(=O)c1cc(-c2ccccc2S(C)(=O)=O)c2cc(Oc3ccccc3)ccn12` [Compound 20, 1-(1-(2-(methylsulfonyl)phenyl)-7-phenoxyindolizin-3-yl)ethanone], the IC50 (BAZ2A [1]) was 550 nM, the IC50 (BRD4(1)) was greater than 50000 nM and the IC50 (BRD9 [2]) was 19900 ± 1840 nM.

With `COc1ccn2c(C(C)=O)cc(-c3ccccc3S(C)(=O)=O)c2c1` [Compound 21, 1-(7-methoxy-1-(2-(methylsulfonyl)phenyl)indolizin-3-yl)ethanone] the IC50 (BAZ2A [1]) was 580 ± 50 nM, the IC50 (BRD4(1)) was greater than 50000 nM and the IC50 (BRD9 [2]) was greater than 50000 nM.

`CC(=O)c1cc(-c2ccccc2S(C)(=O)=O)c2cc(C)ccn12` [Compound 22, 1-(7-methyl-1-(2-(methylsulfonyl)phenyl)indolizin-3-yl)ethanone] gave an IC50 (BAZ2A [1]) of 890 nM.

For `CCCOc1ccn2c(C(C)=O)cc(-c3cccc(OC)c3)c2c1` [Compound 23, 1-(1-(3-Methoxyphenyl)-7-propoxyindolizin-3-yl)ethanone], the “binding to endogenous BAZ2A” value (BAZ2A [5]) was “did not show any binding”, the “selectivity in BLI bromodomain panel” value [6] was “inactive against BAZ2A/B and all other bromodomains except BRD9” and the “pKd BRD9” value (BRD9 [7]) was 4.5. The “pKd SMARCA2 and 4” value (SMARCA2 and 4) was 4.8, the Kd (BRD9 [3]) was 1040 nM and the “binding enthalpy change ΔH BRD9” value (BRD9 [3]) was −8.98 (± 0.152) kcal/mol. For the same compound, the “binding to endogenous BAZ2B” value (BAZ2B) was “did not show any binding”.
